Test results published in ChEMBL document CHEMBL4813981, “Synthesis and in vitro antibacterial activity of new aminothiazole-oximepiperidone cephalosporins” (2021).
≈ marks a conversion by molar mass, not a printed value.

Key:
[1] = test system: Acinetobacter baumannii; assay: Antibacterial activity against Multidrug resistant Acinetobacter baumannii AR 15-2 assessed as reduction in bacterial growth; assay type: functional
[2] = test system: Acinetobacter baumannii; assay: Antibacterial activity against Multidrug resistant Acinetobacter baumannii AR 15-4 assessed as reduction in bacterial growth; assay type: functional
[3] = test system: Klebsiella pneumoniae; assay: Antibacterial activity against Multidrug resistant Klebsiella pneumoniae KR 15-3 assessed as reduction in bacterial growth in the presence of Avibactam; assay type: functional
[4] = test system: Klebsiella aerogenes; assay: Antibacterial activity against Enterobacter aerogenes 15-4 assessed as reduction in bacterial growth; assay type: functional
[5] = test system: Acinetobacter baumannii; assay: Antibacterial activity against Carbapenem- resistant Acinetobacter baumannii 17-2 assessed as reduction in bacterial growth in the presence of Avibactam; assay type: functional
[6] = test system: Acinetobacter baumannii; assay: Antibacterial activity against Carbapenem- resistant Acinetobacter baumannii 17-11 assessed as reduction in bacterial growth in the presence of Avibactam; assay type: functional
[7] = test system: Klebsiella pneumoniae; assay: Antibacterial activity against Carbapenem- resistant Klebsiella pneumoniae KR 15-4 assessed as reduction in bacterial growth in the presence of Avibactam; assay type: functional
[8] = test system: Klebsiella pneumoniae; assay: Antibacterial activity against Carbapenem- resistant Klebsiella pneumoniae KR 15-10 assessed as reduction in bacterial growth in the presence of Avibactam; assay type: functional
[9] = test system: Klebsiella pneumoniae; assay: Antibacterial activity against ESBLs positive Carbapenem-sensitive Klebsiella pneumoniae 17-7 assessed as reduction in bacterial growth in the presence of Avibactam; assay type: functional
[10] = test system: Klebsiella pneumoniae; assay: Antibacterial activity against ESBLs positive Carbapenem-sensitive Klebsiella pneumoniae 17-12 assessed as reduction in bacterial growth in the presence of Avibactam; assay type: functional
[11] = test system: Klebsiella pneumoniae; assay: Antibacterial activity against ESBLs positive Carbapenem-sensitive Klebsiella pneumoniae 17-14 assessed as reduction in bacterial growth in the presence of Avibactam; assay type: functional
[12] = test system: Klebsiella pneumoniae; assay: Antibacterial activity against ESBLs negative Carbapenem-sensitive Klebsiella pneumoniae 15-2 assessed as reduction in bacterial growth in the presence of Avibactam; assay type: functional
[13] = test system: Klebsiella pneumoniae; assay: Antibacterial activity against ESBLs negative Carbapenem-sensitive Klebsiella pneumoniae 17-16 assessed as reduction in bacterial growth in the presence of Avibactam; assay type: functional
[14] = test system: Klebsiella pneumoniae; assay: Antibacterial activity against ESBLs negative Carbapenem-sensitive Klebsiella pneumoniae 17-17 assessed as reduction in bacterial growth in the presence of Avibactam; assay type: functional
[15] = test system: Escherichia coli; assay: Antibacterial activity against ESBLs positive Carbapenem-sensitive Escherichia coli 17-10 assessed as reduction in bacterial growth in the presence of Avibactam; assay type: functional
[16] = test system: Escherichia coli; assay: Antibacterial activity against ESBLs positive Carbapenem-sensitive Escherichia coli 17-14 assessed as reduction in bacterial growth in the presence of Avibactam; assay type: functional
[17] = test system: Enterobacter cloacae; assay: Antibacterial activity against Enterobacter cloacae 17-9 assessed as reduction in bacterial growth in the presence of Avibactam; assay type: functional
[18] = test system: Klebsiella aerogenes; assay: Antibacterial activity against Enterobacter aerogenes 17-5 assessed as reduction in bacterial growth in the presence of Avibactam; assay type: functional
[19] = test system: Klebsiella aerogenes; assay: Antibacterial activity against Enterobacter aerogenes 15-7 assessed as reduction in bacterial growth in the presence of Avibactam; assay type: functional
[20] = test system: Pseudomonas aeruginosa; assay: Bactericidal activity against Carbapenem- resistant Pseudomonas aeruginosa 17-1 assessed as reduction in bacterial growth; assay type: functional
[21] = test system: Escherichia coli; assay: Bactericidal activity against ESBLs negative Carbapenem--sensitive Escherichia coli 17-7 assessed as reduction in bacterial growth; assay type: functional
[22] = test system: Klebsiella aerogenes; assay: Bactericidal activity against Enterobacter aerogenes 15-4 assessed as reduction in bacterial growth; assay type: functional
[23] = test system: Klebsiella pneumoniae; assay: Bactericidal activity against Klebsiella pneumoniae ATCC BAA-1705 assessed as reduction in bacterial growth; assay type: functional
[24] = test system: Klebsiella pneumoniae; assay: Ratio of MBC to MIC for ESBLs positive Carbapenem-sensitive Klebsiella pneumoniae 17-2 assessed as reduction in bacterial growth; assay type: functional
[25] = test system: Escherichia coli; assay: Ratio of MBC to MIC for ESBLs positive Carbapenem-sensitive Escherichia coli 17-3 assessed as reduction in bacterial growth; assay type: functional
[26] = test system: Klebsiella aerogenes; assay: Ratio of MBC to MIC for Enterobacter aerogenes 15-4 assessed as reduction in bacterial growth; assay type: functional
[27] = test system: Escherichia coli; assay: Ratio of MBC to MIC for Escherichia coli ATCC 25922 assessed as reduction in bacterial growth; assay type: functional
[28] = test system: Escherichia coli; assay: Bactericidal activity against ESBLs positive carbapenem-sensitive Escherichia coli 17-3 assessed as reduction in bacterial growth in the presence of avibactam; assay type: functional
[29] = test system: Escherichia coli; assay: Bactericidal activity against Escherichia coli ATCC 25922 assessed as reduction in bacterial growth in the presence of avibactam; assay type: functional
[30] = test system: Escherichia coli; assay: Bactericidal activity against Escherichia coli NCTC 13353 assessed as reduction in bacterial growth in the presence of avibactam; assay type: functional
[31] = test system: Klebsiella pneumoniae; assay: Bactericidal activity against Klebsiella pneumoniae ATCC BAA-1705 assessed as reduction in bacterial growth in the presence of avibactam; assay type: functional
[32] = test system: Klebsiella pneumoniae; assay: Ratio of MBC to MIC for Carbapenem-resistant Klebsiella pneumoniae KR 15-8 assessed as reduction in bacterial growth in the presence of Avibactam; assay type: functional
[33] = test system: Klebsiella pneumoniae; assay: Ratio of MBC to MIC for ESBLs positive Carbapenem-sensitive Klebsiella pneumoniae 17-6 assessed as reduction in bacterial growth in the presence of Avibactam; assay type: functional
[34] = test system: Klebsiella pneumoniae; assay: Ratio of MBC to MIC for ESBLs positive Carbapenem-sensitive Klebsiella pneumoniae 17-12 assessed as reduction in bacterial growth in the presence of Avibactam; assay type: functional
[35] = test system: Klebsiella pneumoniae; assay: Ratio of MBC to MIC for ESBLs negative Carbapenem-sensitive Klebsiella pneumoniae 17-16 assessed as reduction in bacterial growth in the presence of Avibactam; assay type: functional
[36] = test system: Escherichia coli; assay: Ratio of MBC to MIC for ESBLs negative carbapenem-negative Escherichia coli 17-20 assessed as reduction in bacterial growth in the presence of Avibactam; assay type: functional
[37] = test system: Enterobacter cloacae; assay: Ratio of MBC to MIC for Enterobacter cloacae 17-8 assessed as reduction in bacterial growth in the presence of Avibactam; assay type: functional
[38] = test system: Pseudomonas aeruginosa; assay: Ratio of MBC to MIC for carbapenem-sensitive Pseudomonas aeruginosa 17-9 assessed as reduction in bacterial growth in the presence of Avibactam; assay type: functional
[39] = test system: Pseudomonas aeruginosa; assay: Ratio of MBC to MIC for carbapenem-sensitive Pseudomonas aeruginosa 17-26 assessed as reduction in bacterial growth in the presence of Avibactam; assay type: functional
[40] = test system: Acinetobacter baumannii; assay: Ratio of MBC to MIC for Acinetobacter baumannii NCTC 13304 assessed as reduction in bacterial growth in the presence of Avibactam; assay type: functional
[41] = test system: Enterobacter cloacae; assay: Antibacterial activity against Enterobacter cloacae 17-3 assessed as reduction in bacterial growth
[42] = test system: Enterobacter cloacae; assay: Antibacterial activity against Enterobacter cloacae 17-8 assessed as reduction in bacterial growth
[43] = test system: Acinetobacter baumannii; assay: Antibacterial activity against Carbapenem- resistant Acinetobacter baumannii 17-5 assessed as reduction in bacterial growth
[44] = test system: Escherichia coli; assay: Antibacterial activity against ESBLs positive Carbapenem-sensitive Escherichia coli 17-10 assessed as reduction in bacterial growth
[45] = test system: Enterobacter cloacae; assay: Bactericidal activity against Enterobacter cloacae 17-3 assessed as reduction in bacterial growth; assay type: functional
[46] = test system: Pseudomonas aeruginosa; assay: Antibacterial activity against Carbapenem- resistant Pseudomonas aeruginosa 17-1 assessed as reduction in bacterial growth

Compound Nc1nc(/C(=N/OCc2cc(=O)c(O)cn2O)C(=O)N[C@@H]2C(=O)N3C(C(=O)O)=CCS[C@H]23)cs1 has an MIC [1] of over 64 µg/mL, an MIC [2] of over 64 µg/mL and an MIC [3] of 1 µg/mL. The MIC [4] was 4 µg/mL (≈ 7.87 µM), the MIC [5] was 16 µg/mL and the MIC [6] was 8 µg/mL. The MIC [7] was 4 µg/mL, the MIC [8] was 1 µg/mL and the MIC [9] was 2 µg/mL. It also gave an MIC [10] of 0.125 µg/mL, an MIC [11] of 0.5 µg/mL and an MIC [12] of at most 0.03 µg/mL. It also gave an MIC [13] of 0.06 µg/mL, an MIC [14] of 0.125 µg/mL and an MIC [15] of 0.06 µg/mL. For the same compound, the MIC [16] was 0.25 µg/mL, the MIC [17] was 2 µg/mL and the MIC [18] was 2 µg/mL. The MIC [19] was 2 µg/mL, the MBC [20] was 64 µg/mL (≈ 126 µM) and the MBC [21] was 4 µg/mL (≈ 7.87 µM). It also gave an MBC [22] of 4 µg/mL (≈ 7.87 µM), an MBC [23] of over 64 µg/mL and a Ratio [24] of 1. The Ratio [25] was 1, the Ratio [26] was 1 and the Ratio [27] was over 16. For the same compound, the MBC [28] was 0.25 µg/mL, the MBC [29] was 0.5 µg/mL and the MBC [30] was 0.5 µg/mL. The MBC [31] was 2 µg/mL, the Ratio [32] was 4 and the Ratio [33] was 2. It also gave a Ratio [34] of 1, a Ratio [35] of 1 and a Ratio [36] of over 16. It also gave a Ratio [37] of 1, a Ratio [38] of 2 and a Ratio [39] of 4. It also gave a Ratio [40] of 1, an MIC [41] of 64 µg/mL (≈ 126 µM) and an MIC [42] of 16 µg/mL (≈ 31.5 µM). It also gave an MIC [43] of over 64 µg/mL and an MIC [44] of 4 µg/mL (≈ 7.87 µM).

CC(C)(O/N=C(\C(=O)N[C@@H]1C(=O)N2C(C(=O)[O-])=C(C[n+]3ccccc3)CS[C@H]12)c1csc(N)n1)C(=O)O [CEFTAZIDIME] gave an MIC [1] of over 64 µg/mL, an MIC [2] of over 64 µg/mL and an MIC [3] of 2 µg/mL. The MIC [5] was 8 µg/mL, the MIC [6] was 8 µg/mL and the MIC [7] was 2 µg/mL. It also gave an MIC [8] of 2 µg/mL, an MIC [9] of 4 µg/mL and an MIC [10] of 1 µg/mL. It also gave an MIC [11] of 2 µg/mL, an MIC [14] of 0.125 µg/mL and an MIC [15] of 0.5 µg/mL. For the same compound, the MIC [18] was 0.5 µg/mL, the MIC [19] was 1 µg/mL and the MBC [21] was 0.25 µg/mL (≈ 0.457 µM). The MBC [45] was over 16 µg/mL, the MBC [22] was 0.5 µg/mL (≈ 0.915 µM) and the MBC [23] was over 64 µg/mL. For the same compound, the MBC [28] was 0.25 µg/mL, the MBC [29] was 1 µg/mL and the MBC [30] was 1 µg/mL. The MBC [31] was 8 µg/mL, the MIC [46] was 32 µg/mL (≈ 58.5 µM) and the MIC [43] was over 64 µg/mL.

C[C@@H](O)[C@H]1C(=O)N2C(C(=O)O)=C(S[C@@H]3CN[C@H](C(=O)N(C)C)C3)[C@H](C)[C@H]12 [MEROPENEM] gave an MIC [4] of under 0.03 µg/mL.
